Data: patent US8062662B2, “Liposomes containing an entrapped compound in supersaturated solution” (Alza Corporation, priority 2000, dated 2011)

Assay: [1H,15N] HSQC NMR / HPLC: reactivity of cisplatin with histidine and leakage from liposomes
Assay type: physicochemical
Settings: 24-hour incubation, 1:1 mole ratio with N-acetyl histidine
Excerpt: Inverse detection experiments detect the protons that are coupled to ^15N and thus provide information about the chemical shifts and coupling constants of the ^15N which depend on the ligands in the first coordination sphere of the Pt and on its oxidation state. […] HSQC and HMQC are two-dimensional inverse detection experiments that have the proton chemical shifts on one axis and the ^15N chemical shifts on the second axis. HSQC and HMQC of ^15N-labeled Pt complexes have been used successfully, to detect micromolar concentrations of Pt complexes. In the studies performed in support of the invention, HSQC was used, since it gives narrower lines and better resolution than HMQC. […] In addition to the tremendous gain in sensitivity, HSQC selectively detects only the protons that are coupled to the ^15N, thus ignoring all the other protons in the solution (from the liposomes) and simplifying the interpretation of the data.
These associations are irreversible, thus making the drug unavailable, once bound.
A similar study was carried out with N-BOC-methionine.
Lipids (HSPC/cholesterol/^2000PEG-DSPE 51:44:5) were dissolved in ethanol. […] Aliquots of the liposomes and of both precipitates were analyzed by heteronuclear single quantum coherence (HSQC) at 30° C. […]
All [^1H, ^15N] […] The 2D data were recorded using Bruker sequence of […] […]

N.N.[Cl][Pt][Cl] [^15N-cisplatin, cis-^15N-diamminedichloroplatinum(II)]
cisplatin-histidine species, share of the platinum detected (HPLC): 20-30%
